Measured values from PMC11952846, “The sterol-regulating human ARV1 binds cholesterol and phospholipids through its conserved ARV1 homology domain” (The Journal of Biological Chemistry, 2025).
Values belong to the compound of their own block, whether it stands above or below them.

Assays:
Assay in all cases: Liposome binding assay, site-directed mutant
GST-ARV1-N98 K54/K59A = target: T1, GST-ARV1-N98 K54/K59A (Homo sapiens, UniProt Q9H2C2, K54A/K59A); conditions: PC:PL, sulfatide liposomes
T1 construct: Expresses amino-terminal 98 amino acids of ARV1; made in house; host or cells: E. coli BL21 (pGEX-4T1)
T1 sequence (Q9H2C2 1-98 K54A/K59A): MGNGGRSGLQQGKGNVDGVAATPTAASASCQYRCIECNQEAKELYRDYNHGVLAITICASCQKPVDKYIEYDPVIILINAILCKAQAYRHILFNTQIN

GST-ARV1-N98 N94Q = target: T2, GST-ARV1-N98 N94Q (Homo sapiens, UniProt Q9H2C2, N94Q); conditions: PI(4)P liposomes
T2 construct: Expresses amino-terminal 98 amino acids of ARV1; made in house; host or cells: E. coli BL21 (pGEX-4T1)
T2 sequence (Q9H2C2 1-98 N94Q): as the sequence (Q9H2C2 1-98 K54A/K59A) above, with A54K, A59K, N94Q counted along it

GST-ARV1-N98 E70A = target: T3, GST-ARV1-N98 E70A (Homo sapiens, UniProt Q9H2C2, E70A); conditions: PE liposomes
T3 construct: Expresses amino-terminal 98 amino acids of ARV1; made in house; host or cells: E. coli BL21 (pGEX-4T1)
T3 sequence (Q9H2C2 1-98 E70A): as the sequence (Q9H2C2 1-98 K54A/K59A) above, with A54K, A59K, E70A counted along it

GST-ARV1-N98 K84A = target: T4, GST-ARV1-N98 K84A (Homo sapiens, UniProt Q9H2C2, K84A); conditions: PE liposomes
T4 construct: Expresses amino-terminal 98 amino acids of ARV1; made in house; host or cells: E. coli BL21 (pGEX-4T1)
T4 sequence (Q9H2C2 1-98 K84A): as the sequence (Q9H2C2 1-98 K54A/K59A) above, with A54K, A59K, K84A counted along it

Compound: CCCCCCCC/C=C\CCCCCCCC(=O)OC[C@H](COP(=O)(O)OCC(O)CO)OC(=O)CCCCCCC/C=C\CCCCCCCC (stereo partly shown) [PG, phosphatidylglycerol]
liposome binding (GST-ARV1-N98 K54/K59A): unable to bind

Compound: CCCCCC(=O)O[C@H](COC(=O)CCCCCNC(=O)CCCC[C@@H]1SC[C@@H]2NC(=O)N[C@@H]21)COP(=O)(O)O[C@H]1[C@H](O)[C@@H](O)[C@H](OP(=O)(O)O)[C@@H](O)[C@H]1O [reference compound]
liposome binding (GST-ARV1-N98 N94Q): lost the ability to bind

liposome binding (GST-ARV1-N98 E70A): showed binding
liposome binding (GST-ARV1-N98 K84A): showed binding
Compound: phosphatidylethanolamine [PE]
